Source: ChEMBL document CHEMBL1764960, “Stereochemical investigations of isochromenones and isobenzofuranones isolated from Leptosphaeria sp. KTC 727” (J Nat Prod, 2011)
Values after ≈ are worked out from the molar mass of the structure shown.

The molecules below were run on Bipolaris oryzae (assay: Antifungal activity against Cochliobolus miyabeanus assessed as hyphal growth inhibition after 36 hrs).
Format: functional, organism-based

| Compound | IC50 |
| --- | --- |
| C=C1OC(=O)c2c(O)cc(O)c(C)c2[C@@]1(C)O | 10 µg/mL (≈ 42.3 µM) |
| COc1cc(O)c2c(c1C)[C@](C)([C@H](C)O)OC2=O | 500 µg/mL (≈ 1980 µM) |
| C=C1OC(=O)c2c(O)cc(OC)c(C)c2[C@@]1(C)O | 0.5 µg/mL (≈ 2 µM) |
| COc1cc(O)c2c(c1C)[C@](C)(C(C)=O)OC2=O | 10 µg/mL (≈ 40 µM) |
